In patent US20030157176A1, “Antimicrobially treated material and methods of preventing coloring thereof” (priority 2001, published 2003):

Assay: Silver ion concentration ranges in the water system
Settings: dissociated in water system
From the text: A basic idea of the present invention for preventing coloring of silver zeolite is to make an purposeful use of the concentration rages of silver ions dissociated from silver zeolite in water system, i.e., a concentration range A which is effective for antimicrobial action and a concentration range B which is responsible for coloring.
Namely, the concentration range A which is effective for antimicrobial action is more than 1 ppm that is the antimicrobially effective concentration of silver ions while the concentration range B which is responsible for coloring is 40 ppm or more, so that a concentration range C for silver ions dissociated in the water system, which is effective for antimicrobial action without causing coloring, exists between 1 ppm and 40 ppm (preferably between 5 ppm and 30 ppm).
The concentration range of silver ions dissociated from 1000 ppm silver zeolite in the water system varies from 40 ppm to 600 ppm. This variation is probably due to a decrease in the silver ion concentration caused by generation of silver oxide or adsorption of silver ions in the water system, or is under the influence of the degree of dissociation of silver ions by metal salts, surfactants, and temperature. […]

In the case of silver ions, the “antimicrobially effective concentration of silver ions (range A)” value is reported as “more than 1 ppm” and the “silver ion concentration responsible for coloring (range B)” value is reported as ≥ 40 ppm.
